Measurements published in US20250102414A1, “A MICROFLUIDIC DEVICE FOR DETECTING AND CHARACTERIZING AT LEAST ONE ANALYTE, FOR EXAMPLE A CELL, IN A SAMPLE FLUID” (TECHNISCHE UNIVERSITEIT EINDHOVEN, priority 2022, published 2025).

Legend:
MCF-7 cells [1] = experiment: Commercially available apoptosis detection kit for fluorescent imaging (validation); type: cell-based; settings: 1 μM STS, 3 days
Method: (§1) In parallel, a control sample was also cultured under the same conditions without drug exposure was also analyzed for comparison. […] For the control sample, only one cluster, which were viable cells, were identified with 97% ratio for the total number of events. For the treated sample, 3 clusters were identified for viable, early apoptotic, and late apoptotic states with 44%, 19%, and 37% ratios, respectively. For validation, a commercially available apoptosis detection kit for fluorescent imaging were used and it provided the ratios of 47% viable and 53% apoptotic for the treated sample. A high-resolution drug response analysis were performed in a fully label free manner while keeping the cells intact, where the imaging required sample preparation and fixation of the cells, which kills the cells and the possibility of further functional analysis options.

MCF-7 cells [2] = experiment: Label-free drug response analysis by electrical impedance (opacity) with the microfluidic device; type: cell-based; settings: 1 μM STS, cultured 3 days under drug exposure, opacity clusters
Method: FIGS. 14a and 14b show the results of a drug response analysis for MCF-7 cells. As a first step, the viability of the cells was measured before and after analyzing these cells using one of the versions of the devices described in the present disclosure. […] Then, STS (with 1 μM concentration) were added to this well and the cells were cultured for another 3 days under the exposure of the drug.
as §1
Accordingly, embodiments of the present disclosure are capable of achieving measurement results when the electric field generating unit in the embodiments of the present disclosure delivers a voltage drop between electrodes of the present disclosure within the range of 0.1 to 0.5 V and, preferably, within the range of 0.2 to 0.4 V. The results shown in FIGS. 12, 13 and 14 were obtained with voltage values varying between 0.2-0.4 V for frequencies between 1-400 MHz with the maximum reachable voltage drop of 0.12 V, which is below the electroporation limit. […] These to be determined based on the sample, used electrolyte (medium conductivity), peripheral electronics (analyzers, power sources, etc.), size of the measurement volume, and the requirements of the analysis.

CN[C@@H]1C[C@H]2O[C@@](C)([C@@H]1OC)n1c3ccccc3c3c4c(c5c6ccccc6n2c5c31)C(=O)NC4 [STS]
ratio apoptotic (MCF-7 cells [1]): 53%
ratio viable (MCF-7 cells [1]): 47%
ratio of early apoptotic cluster to total number of events (MCF-7 cells [2]): 19%
ratio of late apoptotic cluster to total number of events (MCF-7 cells [2]): 37%
ratio of viable cluster to total number of events (MCF-7 cells [2]): 44%
